Source: US9238034B2, “FN14 antagonists and therapeutic uses thereof” (THE TRANSLATIONAL GENOMICS RESEARCH INSTITUTE, priority 2013, dated 2016)
Where two headings read alike, the source gives them in different places.

Target: T1, Fn14-TWEAK binding (Homo sapiens, UniProt Q9NP84)
T1 construct: the human Fc fragment-tagged Fn14 extracellular domain (R&D Systems) was captured; purchased R&D Systems (Fn14-Fc); Peprotech (recombinant TWEAK)
T1 sequence (Q9NP84 28-80 limits assumed): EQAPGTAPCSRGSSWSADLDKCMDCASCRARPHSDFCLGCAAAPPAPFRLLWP
Assay: Double sandwich ELISA small molecule screening of TWEAK binding to captured Fn14-Fc
Experimental: Double Sandwich ELISA. sTWEAK and sTWEAK variant proteins were synthesized as described above. The expression level of each IVTT synthesized sTWEAK protein was analyzed by western blot analysis and used in approximately equal amounts in the ELISA. To assay the binding of wild type sTWEAK and sTWEAK variants to Fn14, the human Fc fragment-tagged Fn14 extracellular domain (R&D Systems) was captured in an Immuno 96-microwell white plate by adding 100 μL of 0.025 μg/mL Fn14-Fc to wells coated with goat anti-human Fcγ fragment specific monoclonal antibody. After capture, the wells were washed 3× with Dulbecco's Phosphate Buffered Saline (DPBS) containing 0.05% Tween-20. Unbound sites were blocked by addition of 100 μL of blocking solution containing 0.05% Tween-20, 1% BSA, and 3% normal goat serum (NGS) in DPBS for 1 hr at room temperature. 0.01 μL of sTWEAK or sTWEAK variant made with the human IVTT kit or 2 μL of sTWEAK or sTWEAK variant made with the rabbit IVTT kit was diluted in 100 μL of sample diluent (DPBS+1% BSA+0.005% Tween-20) and then added to the wells for 2 hr followed by addition of 100 μL of 50 ng/mL biotinylated TWEAK detection antibody (R&D Systems) in sample diluent. Following incubation for additional 2 hr at room temperature, wells were washed 3× with DPBS containing 0.05% Tween-20 and bound biotinylated TWEAK antibody was detected by incubation with an HRP-conjugated streptavidin. The total luminescent signal was obtained using Femto ELISA kit (Pierce Biochemical) and compared to the standard curve signal obtained from the binding of 0-4000 pg/mL recombinant TWEAK (Peprotech inc) to Fn14-Fc. Using 5-parameter logistic curve fitting for standard curve analysis (Sigmaplot 11.0, SyStat Software Inc.), binding of sTWEAK or TWEAK variant to Fn14-Fc was determined. The data represents that observed for at least four replicate assays.
The small molecule screening was performed using the ELISA assay described above with minor modifications. Briefly, after capturing Fn14-Fc in the microwell plate, 80 μl of drug solution in sample diluent was added to desired wells and incubated for 2 hrs at room temperature. Subsequently, 20 μL of 2500 pg/mL (5×) TWEAK was added to each well to achieve final TWEAK concentration of 500 pg/mL and incubated for additional 2 hr at room temperature. Bound TWEAK was detected as described in the protocol above. All small molecule inhibitors were screened at 25 μM final concentration (final DMSO concentration of 0.125%) in duplicate. Cyclohexamide, a non-specific small molecule, at 25 μM concentration was used as negative control. The anti-Fn14 antibody ITEM-4, added at 2.5 μg/mL, was used as a positive control for complete blockade of TWEAK binding. Reduction in TWEAK binding due to compound addition or controls was calculated by using standard curve (Separate standard curve was obtained for every screening plate).

[1] = Table 3, first round of screening, 25 μM, average of duplicate, read-out: % Reduction in TWEAK Binding, Average
[2] = Table 3, first round of screening, 25 μM, replicate 1, read-out: % Reduction in TWEAK Binding, Data 1
[3] = Table 3, first round of screening, 25 μM, replicate 2, read-out: % Reduction in TWEAK Binding, Data 2
[4] = Table 5, 25 μM, average of duplicate, read-out: % Reduction in TWEAK Binding, Average
[5] = Table 5, 25 μM, replicate 1, read-out: % Reduction in TWEAK Binding, Data 1
[6] = Table 5, 25 μM, replicate 2, read-out: % Reduction in TWEAK Binding, Data 2
[7] = first round of screening, 25 μM, read-out: average inhibition in TWEAK-Fn14 binding
[8] = Table 4, second screening iteration, 25 μM, average of duplicate, read-out: % Reduction in TWEAK Binding, Average
[9] = Table 4, second screening iteration, 25 μM, replicate 1, read-out: % Reduction in TWEAK Binding, Data 1
[10] = Table 4, second screening iteration, 25 μM, replicate 2, read-out: % Reduction in TWEAK Binding, Data 2

Structure (SMILES) | inhibition at 25 µM [1] | inhibition at 25 µM [2] | inhibition at 25 µM [3] | inhibition at 25 µM [4] | inhibition at 25 µM [5] | inhibition at 25 µM [6] | inhibition at 25 µM [7] | inhibition at 25 µM [8] | inhibition at 25 µM [9] | inhibition at 25 µM [10] | inhibition at 25 µM (first round of screening, 25 μM, read-out: single point activities / individual data points, inhibition of the Fn14-TWEAK interaction) | % Reduction in TWEAK Binding, Average (Table 4, second screening iteration, 25 μM, average of duplicate) | % Reduction in TWEAK Binding, Data 1 (Table 4, second screening iteration, 25 μM, replicate 1) | % Reduction in TWEAK Binding, Data 2 (Table 4, second screening iteration, 25 μM, replicate 2)
CCOCCCNC(=O)C(=O)NCc1n[nH]c(=O)c2ccccc12 [Compound F044-0058] | 12% | 9.99% | 14.1% | 12% | 9.99% | 14.1% | – | – | – | – | – | – | – | –
O=C(NCc1ccccc1)C(=O)NCc1n[nH]c(=O)c2ccccc12 [Compound F044-0075] | 13% | 13.2% | 12.8% | 13% | 13.2% | 12.8% | < 15% | – | – | – | – | – | – | –
O=C(NCc1ccccc1Cl)C(=O)NCc1n[nH]c(=O)c2ccccc12 [Compound F044-0076] | 10.9% | 8.55% | 13.2% | 10.9% | 8.55% | 13.2% | – | 1.62% | -2.3% | 5.55% | – | – | – | –
O=C(NCc1ccc(F)cc1)C(=O)NCc1n[nH]c(=O)c2ccccc12 [Compound F044-0077] | 11.5% | 12.6% | 10.4% | 11.5% | 12.6% | 10.4% | – | – | – | – | – | – | – | –
O=C(NCc1cccnc1)C(=O)NCc1n[nH]c(=O)c2ccccc12 [Compound F044-0083] | 11% | 11.1% | 10.8% | 11% | 11.1% | 10.8% | – | – | – | – | – | – | – | –
CCC(=O)Nc1ccccc1-c1nnc(SC(CC)C(=O)Nc2cccc(OC)c2)[nH]c1=O (stereo not drawn) [Compound F151-0392] | 11.6% | 9.04% | 14.2% | 11.6% | 9.04% | 14.2% | – | – | – | – | – | – | – | –
CCC(=O)Nc1ccccc1-c1nnc(SC(C)C(=O)Nc2cccc(Cl)c2C)[nH]c1=O (stereo not drawn) [Compound F151-0419] | 10.9% | 8.79% | 13% | 10.9% | 8.79% | 13% | – | – | – | – | – | – | – | –
CCC(=O)Nc1ccccc1-c1nnc(SC(CC)C(=O)Nc2cc(OC)cc(OC)c2)[nH]c1=O (stereo not drawn) [Compound F151-0435] | 15.5% | 18.9% | 12.2% | 15.5% | 18.9% | 12.2% | > 15% | – | – | – | – | – | – | –
CCC(=O)Nc1ccccc1-c1nnc(SCC(=O)Nc2cc(C)ccc2C)[nH]c1=O [Compound F151-0458] | 11.1% | 10.7% | 11.5% | 11.1% | 10.7% | 11.5% | – | – | – | – | – | – | – | –
CCC(=O)Nc1ccccc1-c1nnc(SCC(=O)Nc2ccc(OC)cc2)[nH]c1=O [Compound F151-0485] | 10.3% | 14.7% | 5.86% | 10.3% | 14.7% | 5.86% | – | – | – | – | – | – | – | –
O=C(CSc1ccccc1)Nc1cccc2nsnc12 [Compound F281-0079] | – | – | – | 14.6% | 15.5% | 13.7% | – | 14.6% | 15.5% | 13.7% | – | – | – | –
O=C(CSc1nnc(-c2ccccc2)c(-c2ccccc2)n1)Nc1ccccc1 [Compound G003-0114] | – | – | – | 13% | 14.7% | 11.3% | – | 13% | 14.7% | 11.3% | – | – | – | –
O=C(CSc1nc2c(cnn2-c2ccccc2)c(=O)[nH]1)NCc1ccc(F)cc1 [Compound G873-0031] | 14.2% | 20.3% | 8.06% | 14.2% | 20.3% | 8.06% | – | – | – | – | > 15% | – | – | –
O=C(CSc1nc2c(cnn2-c2ccccc2)c(=O)[nH]1)NCc1ccc2c(c1)OCO2 [Compound G873-0032] | 20.4% | 26.3% | 14.5% | 20.4% | 26.3% | 14.5% | > 15% | – | – | – | – | – | – | –
Cc1cc(C2CCCN2C(=O)c2cc(-c3ccc4c(c3)OCO4)on2)on1 (stereo not drawn) [Compound J004-1091] | 15% | 23.1% | 6.98% | 15% | 23.1% | 6.98% | > 15% | – | – | – | – | – | – | –
COc1cccc(NC(=O)CSc2nnc(-c3ccc(F)cc3)c(-c3ccc(F)cc3)n2)c1 [Compound K216-0906] | – | – | – | 16.6% | 17.2% | 16% | – | 16.6% | 17.2% | 16% | – | – | – | –
COc1cccc(NC(=O)CSc2nnc(-c3ccc(Cl)cc3)c(-c3ccc(Cl)cc3)n2)c1 [Compound K216-0957] | – | – | – | 24% | 23.8% | 24.3% | – | 24% | 23.8% | 24.3% | – | – | – | –
O=C(CSc1nnc(-c2ccccc2)c(-c2ccccc2)n1)Nc1cccc(Cl)c1 [Compound K784-2268] | – | – | – | 17% | 24% | 10.1% | – | 17% | 24% | 10.1% | – | – | – | –
O=C(CSc1nnc(-c2ccccc2)c(-c2ccccc2)n1)Nc1ccccc1Cl [Compound K784-2269] | – | – | – | – | – | – | – | – | – | – | – | 9.52% | 10.8055% | 8.234%
COc1cccc(NC(=O)CSc2nnc(-c3ccccc3)c(-c3ccccc3)n2)c1 [Compound K784-2273] | – | – | – | 10.5% | 10.5% | – | – | 10.5% | 10.5% | – | – | – | – | –
O=C(c1cn(-c2cccc(Cl)c2)nn1)N1CCCC1 [Compound L524-0322] | – | – | – | 11.6% | 17% | 6.27% | – | 11.6% | 17% | 6.27% | – | – | – | –
O=C(NC1CC1)c1cn(-c2cccc(Cl)c2)nn1 [Compound L524-0361] | – | – | – | 15.7% | 14.7% | 16.7% | – | 15.7% | 14.7% | 16.7% | – | – | – | –
NC(=O)C1CCCN(c2nc3c(-c4ccccc4)csc3c(=O)[nH]2)C1 (stereo not drawn) [Compound Z250-1266] | 11.8% | 16.2% | 7.41% | 11.8% | 16.2% | 7.41% | – | – | – | – | – | – | – | –
Cc1ccc(-c2csc3c(=O)[nH]c(N4CCCC(C(N)=O)C4)nc23)cc1 (stereo not drawn) [Compound Z250-1348] | 13.3% | 16.6% | 9.99% | 13.3% | 16.6% | 9.99% | – | – | – | – | – | – | – | –
